Patent publication US7598260B2, “CDK-inhibitory pyrimidines, their production and use as pharmaceutical agents” (Bayer Schering Pharma Aktiengesellschaft, priority 2001, dated 2009)
Like-named read-outs stand apart in the source and are kept apart here.

Key:
[1] = target: T1, CDK2/CycE (Homo sapiens, UniProt P24941); experiment: CDK2/CycE kinase assay (enzyme test); assay type: biochemical; details: read-out: Inhibition IC50 [nM] CDK2/CycE
T1 construct: GST; purchased Dr. Dieter Marmé, Klinik für Tumorbiologie, Freiburg; host or cells: baculovirus-infected Sf9 insect cells
Procedure: Recombinant CDK2- and CycE-GST-fusion proteins, purified from baculovirus-infected insect cells (Sf9), are obtained by Dr. Dieter Marmé, Klinik für Tumorbiologie [Clinic for Tumor Biology], Freiburg. Histone IIIS, which is used as a kinase substrate, is purchased by the Sigma Company.
The reaction was is stopped by adding EDTA solution (250 mmol, pH 8.0, 14 μl/measuring point).
From each reaction batch, 10 μl applied to P30 filter strips (Wallac Company), and non-incorporated ^33P-ATP is removed by subjecting the filter strips to three washing cycles for 10 minutes each in 0.5% phosphoric acid. After the filter strips are dried for one hour at 70° C., the filter were are covered with scintillator strips (MeltiLex™ A, Wallac Company) and baked for one hour at 90° C. The amount of incorporated ^33P (substrate phosphorylation) is determined by scintillation measurement in a gamma-radiation measuring device (Wallac).

[2] = Solubility (Löslichkeit, g/l); assay type: physicochemical
[3] = test system: MCF-7 cells; experiment: Proliferation assay, crystal violet staining (cell test), MCF-7; assay type: cell-based; details: Homo sapiens
Procedure: (§1) Cultivated human tumor cells (as indicated) are flattened out at a density of 5000 cells/measuring point in a 96-hole multititer plate in 200 μl of the corresponding growth medium. After 24 hours, the cells of one plate (zero-point plate) are colored with crystal violet (see below), while the medium of the other plates is replaced by fresh culture medium (200 μl), to which the test substances are added at various concentrations (0 μm, as well as in the range of 0.01-30 μm; the final concentration of the solvent dimethyl sulfoxide is 0.5%). The cells are incubated for 4 days in the presence of test substances. The cell proliferation is determined by coloring the cells with crystal violet: the cells are fixed by adding 20 μl/measuring point of a 11% glutaric aldehyde solution for 15 minutes at room temperature. After three washing cycles of the fixed cells with water, the plates are dried at room temperature. The cells are colored by adding 100 μl/measuring point of a 0.1% crystal violet solution (pH is set at 3 by adding acetic acid). After three washing cycles of the colored cells with water, the plates are dried at room temperature. The dye is dissolved by adding 100 μl/measuring point of a 10% acetic acid solution. The extinction is determined by photometry at a wavelength of 595 nm. The change of cell growth, in percent, is calculated by standardization of the measured values to the extinction values of the zero-point plate (=0%) and the extinction of the untreated (0 μm) cells (=100%).

[4] = test system: human tumor cells (as indicated); experiment: Proliferation assay, crystal violet staining, other human tumor cells as indicated in the tables; assay type: cell-based; details: 4 days incubation
Procedure: as §1

[5] = 96 h, MCF7 cells, 4 days incubation, read-out: Proliferation IC50 [μM] MCF7
[6] = DU-145, 96 h, DU145 cells, read-out: Proliferation IC50 [μM] DU145
[7] = HCT-116, 96 h, HCT116 cells, read-out: Proliferation IC50 [μM] HCT116
[8] = NCI-H460, 96 h, H460 cells, read-out: Proliferation IC50 [μM] H460

Row | IC50 [1] [nM] | Sw [2] [g/L] | IC50 [3, 5] [µM] | IC50 [4, 6] [µM] | IC50 [4, 7] [µM] | IC50 [4, 8] [µM] | Löslichkeit ([2]; comparison with known compounds) [g/L] | IC50 ([3]; MCF7, MCF-7 cells, comparison with known compounds, read-out: MCF-7 IC50) [µM] | SMILES
1 | 40 | 0.003 | 1.2 | 1.5 | 1.5 | 1.5 | – | – | C#CCOc1nc(Nc2ccc(C(C)=O)cc2)ncc1Br [Example 22, 1-[4-[(5-Bromo-4-(2-propynyloxy)-2-pyrimidinyl)amino]phenyl]-ethanone]
2 | 70 | 0.017 | 1.2 | 1.2 | 1.1 | 1.5 | – | – | C#CCNc1nc(Nc2ccc([S+](C)[O-])cc2)ncc1Br (centres unmarked) [Example 25]
3 | 30 | 0.018 | 0.4 | 0.6 | 0.5 | 0.6 | – | – | C#CCNc1nc(Nc2cccc(S(N)(=O)=O)c2)ncc1Br [Example 36]
4 | 20 | 0.002 | 1 | 9 | 3 | 3 | – | – | C#CCOc1nc(Nc2ccc(OCC3CO3)cc2)ncc1Br (centres unmarked) [Example 40]
5 | 8 | 0.005 | 1.2 | 0.3 | 0.4 | 0.4 | – | – | C#CCNc1nc(Nc2ccc(S(N)(=O)=O)cc2)ncc1Cl [Example 44]
6 | 10 | 0.0094 | 2 | 0.5 | 1.2 | 1.7 | – | – | CCC(Nc1nc(Nc2ccc(S(N)(=O)=O)cc2)ncc1Br)C(=O)OC (centres unmarked) [Example 45]
7 | 4 | 0.042 | 0.2 | 0.3 | 0.4 | 1 | 0.042 | 0.2 | CC(C)[C@H](CO)Nc1nc(Nc2ccc(S(=O)(=O)NCCO)cc2)ncc1Br [Example 48]
8 | 200 | 0.0005 | 0.2 | 2 | 1.2 | 1.6 | – | – | CC(=O)c1ccc(Nc2ncc(Br)c(NCC3CC3)n2)cc1 [Example 52]
